Results from patent publication US6620828B2, “Thiazole compounds and pharmaceutical compositions for inhibiting protein kinases and methods for their use” (Agouron Pharmaceuticals, Inc., priority 1999, dated 2003).

Tests used:
Format in all cases: biochemical
FL-CHK1 = molecular target: T1, FL-CHK1 (Homo sapiens, UniProt O14757); test: CHK1 assay; settings: 20 μM; combinatorial library compounds
T1 construct: C-terminally His-tagged full-length human CHK1 (FL-CHK1); 6xHis (C); made in house; host or cells: baculovirus/insect cells
T1 sequence (O14757 1-476): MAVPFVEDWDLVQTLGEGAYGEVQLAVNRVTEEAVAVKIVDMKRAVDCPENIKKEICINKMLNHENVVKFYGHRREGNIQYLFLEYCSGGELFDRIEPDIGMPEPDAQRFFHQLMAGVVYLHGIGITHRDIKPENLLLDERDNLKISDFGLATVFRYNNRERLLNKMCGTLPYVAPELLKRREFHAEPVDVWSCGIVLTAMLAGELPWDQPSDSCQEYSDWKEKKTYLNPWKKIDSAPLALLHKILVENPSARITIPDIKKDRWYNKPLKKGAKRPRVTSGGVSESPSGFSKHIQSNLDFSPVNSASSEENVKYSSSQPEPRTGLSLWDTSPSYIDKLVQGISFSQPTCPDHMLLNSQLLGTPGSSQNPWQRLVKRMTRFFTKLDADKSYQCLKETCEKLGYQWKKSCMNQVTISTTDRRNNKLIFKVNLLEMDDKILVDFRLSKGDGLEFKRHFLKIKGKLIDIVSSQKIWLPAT
Description: CHK-1 Construct for Assay: C-terminally His-tagged full-length human CHK1 (FL-CHK1) was expressed using the baculovirus/insect cell system. It contains 6 histidine residues (6×His-tag) at the C-terminus of the 476 amino acid human CHK1. The protein was purified by conventional chromatographic techniques.
The production of ADP from ATP that accompanies phosphoryl transfer to the synthetic substrate peptide Syntide-2 ([…]) was coupled to oxidation of NADH using phosphoenolpyruvate (PEP) through the actions of pyruvate kinase (PK) and lactic dehydrogenase (LDH). The oxidation of NADH was monitored by following the decrease of absorbance at 340 nm (ε340=6.22 cm^−1 mM^−1) using a HP8452 spectrophotometer. Typical reaction solutions contained: […]; 0.15 mM NADH; 28 units of LDH/ml; 16 units of PK/ml; 3 mM DTT; 0.125 mM Syntide-2; 0.15 mM ATP; 25 mM MgCl2 in 50 mM TRIS, pH 7.5; and 400 mM NaCl. Assays were initiated with 10 nM of FL-CHK1. Ki values were determined by measuring initial enzyme activity in the presence of varying concentrations of test compounds. The data were analyzed using Enzyme Kinetic and Kaleidagraph software.

[1] = molecular target: T2, phosphorylated VEGF-R2Δ50 (FLVK-P) (Homo sapiens, UniProt P35968, DEL940-989/E990V); test: VEGF-R2 coupled spectrophotometric (FLVK-P) assay; settings: combinatorial library compounds; for inhibition at 20 µM: read-out: VEGF % inhibition at 20 μM, 20 μM
T2 construct: VEGF-R2Δ50 contains residues 806-939 and 990-1171; made in house; host or cells: baculovirus/insect cells
Summary of the method: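 Baculovirus-expressed human VEGF-R2Δ50 (residues 806-939/990-1171, E990V) was autophosphorylated with 3 mM ATP, 40 mM MgCl2 for 2 h at 4° C. ADP formation was coupled via PK/LDH to NADH oxidation, read at 340 nm, with 5.1 mM poly(E4Y1), 1 mM ATP, 25 mM MgCl2, Hepes pH 7.5. Ki came from activity across compound concentrations.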

CDK2/Cyclin A complex = CDK2/Cyclin A complex (Homo sapiens, UniProt P24941); test: CDK2/Cyclin A assay
Description: CDK2/Cyclin A Construct for Assay: CDK2 was purified using published methodology (Rosenblatt et al., J. Mol. Biol., 230, 1317-1319 (1993)) from insect cells that had been infected with a baculovirus expression vector. Cyclin A was purified from E. coli cells expressing full-length recombinant cyclin A, and a truncated cyclin A construct was generated by limited proteolysis and purified as described previously (Jeffrey et al., Nature, 376, 313-320 (Jul. 27, 1995)).
(§1) CDK2/Cyclin A and CDK4/Cyclin D Assays
(§2) Cyclin-dependent kinase activity was measured by quantifying the enzyme-catalyzed, time-dependent incorporation of radioactive phosphate from [^32P]ATP into a recombinant fragment of the retinoblastoma protein. Unless noted otherwise, assays were performed in 96-well plates in a total volume of 50 μL, in the presence of 10 mM HEPES (N-[2-hydroxyethyl]piperazine-N′-[2-ethanesulfonic acid]) (pH 7.4), 10 mM MgCl2, 25 μM adenosine triphosphate (ATP), 1 mg/mL ovalbumin, 5 μg/mL leupeptin, 1 mM dithiothreitol, 10 mM β-glycerophosphate, 0.1 mM sodium vanadate, 1 mM sodium fluoride, 2.5 mM ethylene glycol-bis(β-aminoethyl ether)-N,N,N′N′-tetraacetic acid (EGTA), 2% (v/v) dimethylsulfoxide, and 0.03-0.2 μCi [^32P]ATP. The substrate (0.3-0.5 μg) was purified recombinant retinoblastoma protein fragment (Rb) (residues 386-928 of the native retinoblastoma protein; 62.3 kDa, containing the majority of the phosphorylation sites found in the native 106-kDa protein, as well as a tag of six histidine residues for ease of purification). Reactions were initiated with CDK2 (150 nM CDK2/Cyclin A complex) or CDK4 (50 nM CDK4/Cyclin D3 complex), incubated at 30° C., and terminated after 20 minutes by the addition of ethylenediaminetetraacetic acid EDTA) to 250 mM. The phosphorylated substrate was then captured on a nitrocellulose membrane using a 96-well filtration manifold, and unincorporated radioactivity was removed by repeated washing with 0.85% phosphoric acid. Radioactivity was quantified by exposing the dried nitrocellulose membranes to a phosphorimager. Apparent Ki values were measured by assaying enzyme activity in the presence of different compound concentrations and subtracting the background radioactivity measured in the absence of enzyme. The kinetic parameters (kcat, Km for ATP) were measured for each enzyme under the usual assay conditions by determining the dependence of initial rates on ATP concentration. The data were fit to an equation for competitive inhibition using Kaleidagraph (Synergy Software), or were fit to an equation for competitive tight-binding inhibition using the software KineTic (BioKin, Ltd.). Measured Ki values for known inhibitors against CDK4 and CDK2 agreed with published IC50 values. The specific activity of CDK4 was the same whether complexed to full-length cyclin D3 or the truncated Cyclin D3 construct; both complexes also yielded very similar Ki values for selected inhibitors.

CDK4/Cyclin D3 complex = molecular target: T3, CDK4/Cyclin D3 complex (Homo sapiens, UniProt P11802); test: CDK4/Cyclin D assay; settings: for inhibition at 100 µM: at 100 (printed 100 or 100 μM)
T3 construct: made in house; host or cells: insect cells co-infected with baculovirus vectors
Procedure: CDK4/Cyclin D Construct for Assay: A complex of human CDK4 and cyclin D3, or a complex of cyclin DI and a fusion protein of human CDK4 and glutathione-S-transferase (GST-CDK4), was purified using traditional biochemical chromatographic techniques from insect cells that had been co-infected with the corresponding baculovirus expression vectors.
as §1, §2

[2] = 1.0 μM, combinatorial library compounds

T2 sequence (P35968 with tags, fused parts or gaps DEL940-989/E990V limits assumed): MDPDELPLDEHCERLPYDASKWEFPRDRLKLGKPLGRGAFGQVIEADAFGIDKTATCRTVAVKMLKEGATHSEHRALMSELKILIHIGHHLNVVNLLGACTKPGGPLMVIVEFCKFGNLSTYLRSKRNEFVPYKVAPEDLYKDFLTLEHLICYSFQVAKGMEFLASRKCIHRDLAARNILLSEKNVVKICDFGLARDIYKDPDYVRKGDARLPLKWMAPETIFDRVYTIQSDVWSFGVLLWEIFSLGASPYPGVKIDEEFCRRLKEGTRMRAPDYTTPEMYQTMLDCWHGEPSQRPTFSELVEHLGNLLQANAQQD
T3 sequence (P11802 whole entry): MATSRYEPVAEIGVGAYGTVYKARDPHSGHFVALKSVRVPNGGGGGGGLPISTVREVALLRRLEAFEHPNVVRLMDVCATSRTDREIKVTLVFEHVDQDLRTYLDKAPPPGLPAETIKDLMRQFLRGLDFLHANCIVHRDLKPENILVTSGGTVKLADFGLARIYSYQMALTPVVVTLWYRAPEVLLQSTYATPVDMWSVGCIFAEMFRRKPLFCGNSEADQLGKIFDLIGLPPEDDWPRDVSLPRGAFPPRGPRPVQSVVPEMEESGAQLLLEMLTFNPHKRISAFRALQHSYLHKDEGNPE
T3 sequence (P30281 whole entry partner): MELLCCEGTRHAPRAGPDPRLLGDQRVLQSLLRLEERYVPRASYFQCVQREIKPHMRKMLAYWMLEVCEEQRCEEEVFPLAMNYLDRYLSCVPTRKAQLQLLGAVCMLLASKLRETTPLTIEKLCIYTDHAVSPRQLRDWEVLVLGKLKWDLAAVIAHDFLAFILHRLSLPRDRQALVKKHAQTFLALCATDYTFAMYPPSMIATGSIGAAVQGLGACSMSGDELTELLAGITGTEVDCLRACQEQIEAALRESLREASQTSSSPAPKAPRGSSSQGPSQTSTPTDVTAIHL

| SMILES | inhibition at 20 µM (FL-CHK1) [%] | inhibition at 20 µM [1] [%] | inhibition at 1 µM (CDK2/Cyclin A complex; [2]) [%] | inhibition at 1 µM (CDK4/Cyclin D3 complex; [2]) [%] | Ki (CDK2/Cyclin A complex; Table 2) [nM] | further results |
| --- | --- | --- | --- | --- | --- | --- |
| CCOC(=O)c1ccccc1-c1csc(-c2sc(Nc3ccc(S(N)(=O)=O)cc3)nc2N)n1 | 11.4 | 9 | 52.6 | 53.3 | – | – |
| Nc1nc(Nc2ccc(S(N)(=O)=O)cc2)sc1-c1nc(-c2ccc3c(c2)OCCO3)cs1 | 20.1 | 29 | 21.4 | 31.8 | – | – |
| CC(C)c1ccc(Nc2nc(N)c(-c3nc(-c4ccc([N+](=O)[O-])cc4)cs3)s2)cc1 | 6 | -4 | 17.8 | 35.6 | – | – |
| Nc1nc(Nc2ccc(S(N)(=O)=O)cc2)sc1-c1nc(-c2ccc(-c3ccc(Cl)cc3Cl)o2)cs1 | 3.3 | -2 | 21.4 | 25 | – | – |
| COc1cccc(-c2csc(-c3sc(Nc4ccc(C(C)C)cc4)nc3N)n2)c1 | 3.8 | 10 | 16 | 49.3 | – | – |
| CCOC(=O)c1ccccc1-c1csc(-c2sc(Nc3ccc(C(C)C)cc3)nc2N)n1 | 26 | 26 | 29.2 | 81.6 | – | – |
| CN(C)c1ccc(Nc2nc(N)c(-c3nc(-c4cccc(OC(=O)c5ccccc5)c4)cs3)s2)cc1 | 23.3 | 16 | 0.6 | 57.5 | – | – |
| CC(C)c1ccc(Nc2nc(N)c(-c3nc(-c4ccc(-c5ccccc5)cc4)cs3)s2)cc1 | 3.2 | -9 | 9.6 | 0.7 | – | – |
| CCOC(=O)c1ccccc1-c1csc(-c2sc(Nc3ccc(N(C)C)cc3)nc2N)n1 | 38.5 | 25 | 19.8 | 45.9 | – | – |
| CC(=O)Nc1nc(N)c(-c2nc(C(=O)c3ccccc3)cs2)s1 [F(16), N-(4′-Amino-4-benzoyl-[2,5′]bithiazolyl-2′-yl)-acetamide] | – | – | – | – | – | Ki (CDK2/Cyclin A complex; Table 3): 480 nM; inhibition at 5 µM (CDK4/Cyclin D3 complex; Table 3): 35% |
| Nc1nc(Nc2ccc(S(N)(=O)=O)cc2)sc1C1=NC2(O)OCCC2S1 (stereo not drawn) [H(5), 4-[4′-Amino-4-hydroxy-5-(2-hydroxy-ethyl)-3′H-1′-[2,5]bithiazolyl-2′-ylamino]-benzenesulfonamide] | – | – | – | – | – | CDK2 % inhibition @ 100 (CDK2/Cyclin A complex; Table 2, at 100 (printed 100 or 100 μM)): 29% @; inhibition at 100 µM (CDK4/Cyclin D3 complex; Table 2): < 0% |
| CN(C)CCNC(=O)c1csc(-c2sc(Nc3ccc(S(N)(=O)=O)cc3)nc2N)n1 [N(2), 4-Amino-2′-(4-sulfamoyl-phenylamino)-[2,5′]-bithiazoyl-4-carboxylic acid (2-dimethylamino-ethyl)-amide] | – | – | – | – | – | Ki (CDK2/Cyclin A complex; Table 3): 120 nM; Ki (CDK4/Cyclin D3 complex; Table 3): 1300 nM |
| CCCCCc1ccc(-c2csc(-c3sc(Nc4ccc(S(N)(=O)=O)cc4)nc3N)n2)cc1 | 10.8 | – | -9.9 | -7.2 | – | – |
| Nc1nc(Nc2ccc(S(N)(=O)=O)cc2)sc1-c1nc(C(=O)Nc2ccccc2)cs1 [N(4), 4′-Amino-2′-(4-sulfamoyl-phenylamino)-[2,5′]bithiazolyl-4 carboxylic acid phenylamide] | – | – | – | – | – | Ki (CDK2/Cyclin A complex; Table 3): 158 nM; Ki (CDK4/Cyclin D3 complex; Table 3): 480 nM |
| CN(C)CCNS(=O)(=O)c1ccc(Nc2nc(N)c(-c3nc(C(=O)c4ccccc4)cs3)s2)cc1 [A(71), 4-(4′-Amino-4-benzoyl-[2,5′]bithiazolyl-2′-ylamino)-N-(2-dimethylamino-ethyl)-benzenesulfonamide] | – | – | – | – | 29000 | Ki (CDK4/Cyclin D3 complex; Table 2): 190000 nM |

The next lines start with results.

| inhibition at 20 µM (FL-CHK1) [%] | inhibition at 20 µM [1] [%] | inhibition at 1 µM (CDK2/Cyclin A complex; [2]) [%] | inhibition at 1 µM (CDK4/Cyclin D3 complex; [2]) [%] | Ki (CDK2/Cyclin A complex; Table 2) [nM] | SMILES | further results |
| --- | --- | --- | --- | --- | --- | --- |
| 6.9 | – | – | – | – | COc1ccc(-c2csc(-c3sc(Nc4ccc(S(N)(=O)=O)cc4)nc3N)n2)cc1 [drawing 399] | VEGF % inhibition at 20 μM ([1]; 20 μM): 48%; CDK2 % Inhibition at 1.0 μM (CDK2/Cyclin A complex; [2]): 10.7%; CDK4 % Inhibition at 1.0 μM (CDK4/Cyclin D3 complex; [2]): 9.3% |
| 12.3 | -3 | 11.2 | -11.3 | – | Nc1nc(Nc2ccc(S(N)(=O)=O)cc2)sc1-c1nc(-c2ccc(-c3ccccc3)cc2)cs1 [drawing 404] | – |
| – | – | – | – | 2700 | Nc1cccc(-c2csc(-c3sc(Nc4ccc(S(N)(=O)=O)cc4)nc3N)n2)c1 [C(3)] | Ki (CDK4/Cyclin D3 complex; Table 2): 4600 nM |
| – | – | – | – | 18000 | Nc1nc(Nc2ccc(S(N)(=O)=O)cc2)sc1-c1nccn1Cc1ccc(Cl)cc1 [G(8), 4-{4-Amino-5-[1-(4-chloro-benzyl)-1H-imidazol-2-yl]-thiazol-2-ylamino}-benzenesulfonamide] | inhibition at 100 µM (CDK4/Cyclin D3 complex; Table 2): 31% |
| – | – | – | – | 8800 | Nc1nc(N)c(-c2nc(C(=O)c3ccccc3)cs2)s1 [E(4), (2′,4′-Diamino-[2,5′]bithiazolyl-4-yl)-phenyl-methanone] | Ki (CDK4/Cyclin D3 complex; Table 2): 21000 nM |
| – | – | – | – | 160 | Nc1cccc(C(=O)c2csc(-c3sc(Nc4ccc(S(N)(=O)=O)cc4)nc3N)n2)c1 [A(72), 4-[4-Amino-4-(3-amino-benzoyl)-[2,5′]bithiazoyl-2′-ylamino]-benzenesulfonamide] | inhibition at 5 µM (CDK4/Cyclin D3 complex; Table 2): 48% |
| – | – | – | – | 200 | Nc1csc(-c2sc(Nc3ccc(S(N)(=O)=O)cc3)nc2N)n1 [H(6), 4-(4,4′-Diamino-[2,5′]bithiazolyl-2′-ylamino)-benzenesulfonamide] | Ki (CDK4/Cyclin D3 complex; Table 2): 1200 nM |
| – | – | – | – | 2600 | Nc1nc(Nc2ccc(S(N)(=O)=O)cc2)sc1-c1nc(O)c(-c2ccccc2O)s1 [H(4), 4-[4′-Amino-4-hydroxy-5-(2-hydroxy-phenyl)-[2,5′]bithiazoly-2′-ylamino]-benzenesulfonamide] | Ki (CDK4/Cyclin D3 complex; Table 2): 2100 nM |
